Results taken from US7186695B2 (priority 2001, dated 2007).
Where two headings read alike, the source gives them in different places.

Experiments:
[1] = Binding of GSAO to dithiols, loss of thiols in DTNB assay
Description: (§1) FIG. 11. Titration of DMP or cysteine with GSAO. DMP (15 μM corresponding to 30 μM thiols) is or cysteine (28 μM) was incubated with GSAO (0–50 μM) for 10 minutes. DTNB (950 μM) was then added and the reactions incubated for a further 10 minutes. The concentration of thiol in the reactions was determined from the absorbance of the TNB dianion at 412 nm.
FIG. 12. Interaction of GSAO with synthetic. Deptide and protein dithiols. DMP (A) (15 μM), 6,8-thioctic acid (B) ([…]), dithiothreitol (C) (8.5 μM), TrpCysGlyProCysLys (D) (4.6 μM), TrpCysGlyHisCysLys (E) (5.5 μM) or thioredoxin (F) (4.1 μM corresponding to 20.6 μM thiols) was incubated with GSAO (0–56 μM) for 10 minutes. […] The concentration of thiol in the reactions was determined from the absorbance of the TNB dianion at 412 nm. […]
(§2) A stock solution of DMP (5 μL, 50 μmol) was dissolved in DMSO (995 μL), giving a concentration of 50 mM DMP. […] The activity of the arsenical could then be determined by the titration of varying amounts of arsenical against the DMP working solution (10 μL) in a 96-well microbitre plate, with the total volume made up to 195 μL by addition of buffer. […] The absorbance at 412 nm due to the formation of the TNB dianion was measured using a Molecular Devices Thermomax Plus (Palo Alto, Calif.) microplate reader. […]
(§3) Binding of GSAO to dithiols was measured from loss of thiols using the DTNB assay described above. […]

[2] = as above; conditions: errors are 1 SD, read-out: Dissociation Constant
Description: FIG. 12. Interaction of GSAO with synthetic. Deptide and protein dithiols. DMP (A) (15 μM), 6,8-thioctic acid (B) ([…]), dithiothreitol (C) (8.5 μM), TrpCysGlyProCysLys (D) (4.6 μM), TrpCysGlyHisCysLys (E) (5.5 μM) or thioredoxin (F) (4.1 μM corresponding to 20.6 μM thiols) was incubated with GSAO (0–56 μM) for 10 minutes. DTNB (950 μM) was then added and the reactions incubated for a further 10 minutes. The concentration of thiol in the reactions was determined from the absorbance of the TNB dianion at 412 nm. The solid lines represent the best non-linear least squares fit of the data to Equation 1 (A to E) or Equation 2 (F) and have been drawn using the parameter estimates in Table 1. […]
as §2, §3

[3] = Titration of cysteine with GSAO, DTNB assay; format: binding; conditions: cysteine 28 μM, GSAO 0–50 μM, 10 minutes
Description: as §1
A stock solution of DMP (5 μL, 50 μmol) was dissolved in DMSO (995 μL), giving a concentration of 50 mM DMP. A second dilution of the 50 mM DMP stock solution (10 μL) in pH 7.0 buffer (0.1 M HEPES, 0.3 M NaCl, 1 mM EDTA) (990 μL) gave a working solution of 500 ? M DMP. The activity of the arsenical could then be determined by the titration of varying amounts of arsenical against the DMP working solution (10 μL) in a 96-well microbitre plate, with the total volume made up to 195 μL by addition of buffer. After a 10 minute incubation at room temperature, during which time the solutions were agitated on a plate shaker, 5 μL of a 37.9 mM stock solution of DTNB (15 mg) in DMSO (1 mL) was added, and the plate incubated with shaking for another 10 minutes. The absorbance at 412 nm due to the formation of the TNB dianion was measured using a Molecular Devices Thermomax Plus (Palo Alto, Calif.) microplate reader. The extinction coefficient for the TNB dianion at pH 7.0 is 14,150 M^−1cm^−1 at 412 nm (Riddles et al., 1983).

Thioredoxin = target: T1, Thioredoxin (Homo sapiens, UniProt P10599); assay: Inhibition of thioredoxin-mediated reduction of 70 kDa fibronectin fragment; format: biochemical; conditions: 1 μM thioredoxin, 10 minutes
T1 construct: purchased American Diagnostica, Greenwich, Conn; host or cells: E. coli
T1 sequence (P10599 1-105): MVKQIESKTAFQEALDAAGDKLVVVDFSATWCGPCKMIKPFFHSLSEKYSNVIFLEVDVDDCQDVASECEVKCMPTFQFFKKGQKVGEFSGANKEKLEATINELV
Description: FIG. 13. Inhibition of thioredoxin by GSAO. Thioredoxin (1 μM) was incubated with GSAO (0, 1 or 10 μM) for 10 minutes at room temperature in 20 mM Hepes, 0.14 M NaCl, pH 7.4 buffer. The 70 kDa fibronectin fragment (10 μg per mL) was added and incubated for 5 minutes at room temperature. The reactions were labelled with MPB (100 μM) for 10 minutes at 37° C. The MPB was quenched with GSH (200 μM) for 10 minutes at 37° C. followed by Iodoacetamide (400 μM) for 10 minutes at room temperature. The MPB-labelled 70 kDa fragment was resolved on 5–15% SDS-PAGE, transferred to PVDF membrane and the MPB detected by blotting with streptavidin peroxidase. The positions of Mr markers are shown at left.
It was observed that thioredoxin reduced one or more protein disulfide bonds in the 70 kDa N-terminal fragment of fibronectin.

Human T cells (A3.01) = assay: Membrane permeability, tritiated GSAO in cytosol; format: in vitro ADME; conditions: 50 μM GSAO
Description: (§4) Human T cells (A3.01) or adherent BAE cells were incubated with complete medium containing 50 μM GSAO and ˜100,000 counts per minute of tritiated GSAO for 1 or 72 hours. Tritiated GSAO was prepared exactly as described for GSAO except that glycine-2-^3H-glutathione (NEN, Boston, Mass.) was used in place of cold glutathione. The cells were washed and lysed by two cycles of freezing and thawing. The cytosolic constituents were collected by differential centrifugation (Ausbel et al., 2000) and the tritiated GSAO was measured. Only 0.5% of the total tritiated GSAO was found in the T cell cytosol and 0.04% in the BAE cytosol after 1 hour. Moreover, only 4.5% of the GSAO penetrated the T cell membrane after 72 hours of culture.

adherent BAE cells = assay: Membrane permeability, tritiated GSAO in cytosol; format: in vitro ADME, bovine; conditions: 50 μM GSAO, 1 hour
Description: as §4

BAE cells = assay: cells; conditions: Bos taurus, Endothelial cell, 24 h, read-out: IC50 for viability

Structure (SMILES): NC(CCC(=O)NC(CSCC(=O)Nc1ccc([As]=O)cc1)C(=O)NCC(=O)O)C(=O)O (centres unmarked) [GSAO, 4-(N-(S-glutathionylacetyl)amino)-phenylarsenoxide]
- interaction of GSAO with DMP in DTNB titration ([1]; DMP 15 μM, GSAO 0–50 μM, 10 minutes): bound to DMP and prevented interaction of the dithiol with DTNB
- Kd ([1]; ring size 5, errors are 1 SD, read-out: Dissociation Constant): 130 nM
- Kd ([2]; ring size 6): 200 ± 50 nM
- Kd ([2]; ring size 7): 420 nM
- interaction of GSAO with cysteine in DTNB titration [3]: any interaction of GSAO with cysteine was displaced by DTNB
- inhibition at 1 µM (Thioredoxin; 1 μM GSAO): ~50%
- inhibition of thioredoxin activity (Thioredoxin; 10 μM GSAO): completely inhibited
- total tritiated GSAO found in the cytosol (Human T cells (A3.01); 1 hour): 0.5%
- GSAO that penetrated the T cell membrane (Human T cells (A3.01); 72 hours of culture): 4.5%
- total tritiated GSAO found in the cytosol (adherent BAE cells): 0.04%
- IC50 (BAE cells): ~100000 nM
